Test results published in US12503475B2 (Centessa Pharmaceuticals (UK) Limited, priority 2020, dated 2025).

Target: T1, human orexin type 2 receptor (hOX2R) (Homo sapiens, UniProt O43614)
T1 construct: expressed in transfected cells
T1 sequence (O43614 1-444): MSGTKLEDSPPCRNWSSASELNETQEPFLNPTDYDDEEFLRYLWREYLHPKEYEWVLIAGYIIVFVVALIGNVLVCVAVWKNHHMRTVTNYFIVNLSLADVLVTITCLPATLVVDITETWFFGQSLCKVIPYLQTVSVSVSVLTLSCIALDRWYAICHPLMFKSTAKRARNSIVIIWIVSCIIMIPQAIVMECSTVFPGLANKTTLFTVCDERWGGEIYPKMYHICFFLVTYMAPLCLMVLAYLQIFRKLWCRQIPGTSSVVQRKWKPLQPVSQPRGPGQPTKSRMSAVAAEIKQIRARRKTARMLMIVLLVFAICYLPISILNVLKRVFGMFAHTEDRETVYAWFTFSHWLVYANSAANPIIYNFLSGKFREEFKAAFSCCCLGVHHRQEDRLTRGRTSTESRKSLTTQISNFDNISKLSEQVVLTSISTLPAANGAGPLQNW
Assay: Measurement of orexin type 2 receptor agonist activity (FLIPR calcium fluorescence)
Format: cell-based
Conditions: CHO cells expressing hOX2R, FLIPR calcium fluorescence; for EC50: read-out: hOx2 pEC50 (converted); for Emax: CHO, read-out: hOx2 Emax (%)
Outline: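 Agonism was read as fluorescence in cells stably expressing human OX2R. E. is the response at 10 μM relative to orexin A as full agonist (100%).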

Row | SMILES | EC50 | Emax
1 | CC(C)S(=O)(=O)N[C@@H]1[C@H](Cc2cccc(-c3ccccc3)c2F)N(C(=O)[C@H]2CCO2)CC12CC2 [Compound 162, N-((6S,7S)-6-((2-fluoro-[1,1′-biphenyl]-3-yl)methyl)-5-((R)-oxetane-2-carbonyl)-5-azaspiro[2.4]heptan-7-yl)propane-2-sulfonamide] | 1 to 10 nM | 90 to 100%
2 | N#C[C@]1(C(=O)N2CC3(CC3)[C@H](NS(=O)(=O)CF)[C@@H]2Cc2cccc(-c3ccccc3)c2F)CCO1 [Compound 226, N-((6S,7S)-5-((S)-2-cyanooxetane-2-carbonyl)-6-((2-fluoro-[1,1′-biphenyl]-3-yl)methyl)-5-azaspiro[2.4]heptan-7-yl)-1-fluoromethanesulfonamide] | 1 to 10 nM | 90 to 100%
3 | CC(C)S(=O)(=O)N[C@@H]1[C@H](Cc2cccc(-c3ccccc3)c2)N(C(=O)[C@H]2CCO2)CC12CC2 [Compound 114, N-((6S,7S)-6-([1,1′-biphenyl]-3-ylmethyl)-5-((R)-oxetane-2-carbonyl)-5-azaspiro[2.4]heptan-7-yl)propane-2-sulfonamide] | 1 to 10 nM | 80 to 90%
4 | CC(F)(F)CNC(=O)N1CC2(CC2)[C@H](NS(=O)(=O)CF)[C@@H]1Cc1cccc(-c2ccccc2)c1F [Compound 409] | 1 to 10 nM | 90 to 100%
5 | COCCNC(=O)N1CC2(CC2)[C@H](NS(=O)(=O)CF)[C@@H]1Cc1cccc(-c2ccccc2)c1F [Compound 357, (6S,7S)-6-((2-fluoro-[1,1′-biphenyl]-3-yl)methyl)-7-((fluoromethyl)sulfonamido)-N-(2-methoxyethyl)-5-azaspiro[2.4]heptane-5-carboxamide] | 10 to 100 nM | 90 to 100%
6 | CC(C)(O)C(=O)N1CC2(CC2)[C@H](NS(=O)(=O)CF)[C@@H]1Cc1cccc(-c2cc(F)cc(F)c2)c1F [Compound 192, 1-fluoro-N-((6S,7S)-5-(2-hydroxy-2-methylpropanoyl)-6-((2,3′,5′-trifluoro-[1,1′-biphenyl]-3-yl)methyl)-5-azaspiro[2.4]heptan-7-yl)methanesulfonamide] | 1 to 10 nM | 90 to 100%
7 | C[C@H](CO)NC(=O)N1CC2(CC2)[C@H](NS(=O)(=O)C(F)F)[C@@H]1Cc1cccc(-c2ccccc2)c1F [Compound 364, (6S,7S)-7-((difluoromethyl)sulfonamido)-6-((2-fluoro-[1,1′-biphenyl]-3-yl)methyl)-N-((R)-1-hydroxypropan-2-yl)-5-azaspiro[2.4]heptane-5-carboxamide] | 0.0794 to 1 nM | 90 to 100%
8 | CC(C)C(=O)N1CC2(CC2)C(NS(C)(=O)=O)C1Cc1cccc(-c2cccc(F)c2)c1 (racemic) [Compound 8, N-(6-((3′-fluoro-[1,1′-biphenyl]-3-yl)methyl)-5-isobutyryl-5-azaspiro[2.4]heptan-7-yl)methanesulfonamide] | 1 to 10 nM | 90 to 100%
9 | C[C@H](CF)NC(=O)N1CC2(CC2)[C@H](NS(=O)(=O)CF)[C@@H]1Cc1cc(F)cc(-c2ccccc2)c1F [Compound 375, (6S,7S)-6-((2,5-difluoro-[1,1′-biphenyl]-3-yl)methyl)-7-((fluoromethyl)sulfonamido)-N-((R)-1-fluoropropan-2-yl)-5-azaspiro[2.4]heptane-5-carboxamide] | 0.0794 to 1 nM | 90 to 100%
10 | [2H]c1c([2H])c([2H])c(-c2cc(F)cc(C[C@H]3[C@@H](NS(C)(=O)=O)C4(CC4)CN3C(=O)[C@H]3CCO3)c2F)c([2H])c1[2H] [Compound 348, N-((6S,7S)-6-((2,5-difluoro-[1,1′-biphenyl]-3-yl-2′,3′,4′,5′,6′-d5)methyl)-5-((R)-oxetane-2-carbonyl)-5-azaspiro[2.4]heptan-7-yl)methanesulfonamide] | 1 to 10 nM | 90 to 100%
11 | CN(C)S(=O)(=O)N[C@@H]1[C@H](Cc2cccc(-c3ccccc3)c2F)N(C(=O)C2(O)CCC2)CC12CC2 [Compound 120, N-((6S,7S)-6-((2-fluoro-[1,1′-biphenyl]-3-yl)methyl)-5-(1-hydroxycyclobutane-1-carbonyl)-5-azaspiro[2.4]heptan-7-yl)-N,N-dimethylsulfuric diamide] | 0.0794 to 1 nM | 90 to 100%
